According to patent US20250177383A1, “DI-CYCLOPROPYL BASED IL-17A MODULATORS AND USES THEREOF” (DICE ALPHA, INC., priority 2022, published 2025):
Like-named read-outs stand apart in the source and are kept apart here.

Molecular target: T1, IL-17A/A (Homo sapiens, UniProt Q16552)
T1 sequence (Q16552 24-155): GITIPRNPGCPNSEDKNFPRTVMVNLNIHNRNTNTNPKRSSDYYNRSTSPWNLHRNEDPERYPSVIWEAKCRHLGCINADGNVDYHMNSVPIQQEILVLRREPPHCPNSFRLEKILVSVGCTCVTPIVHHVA
Experiment: IL-17A/A HEK-Blue Cell Assay
Assay type: cell-based
Settings: IL-17A/A stimulation, 20 hours, SEAP readout
Procedure: The HEK-Blue IL-17 reporter cell line (Fisher #NC1408637) was used for cell-based IL-17A/A inhibition assays. Cells were grown and prepared for assays according to the manufacturer's instructions. This cell line consists of HEK 293 cells that were designed to expressed IL-17R^A, IL-17R^C, and the ActI adapter molecule, the combination of which, when stimulated by IL-17A/A activates a NFκB promoter and drives expression of a recombinant Secreted Alkaline Phosphatase (SEAP) protein. Media from the cells is then added to a development reagent (Quanti-Blue Substrate, Fisher #NC9711613), and read at A630.
Compounds were titrated in DMSO, with a top final compound concentration of 10 uM and added to the cells immediately before adding IL-17A/A (Genscript #Z03228). The cells, compound, and IL-17A/A were then incubated for 20 hours before media was removed for SEAP analysis. The resulting inhibition curve was then analyzed using a Dotmatics screening protocol, and IC50 values were determined using a 4-parameter nonlinear fit. DMSO was added to a universal final concentration of 0.1% to optimize background. IL-17A/A inhibition data is provided in Table 1 for selected compounds.

[1] = HEK-Blue IL-17 reporter cells, read-out: IL17 AA HEK-5 pIC50 (converted)

Compound	IC50 [1]	IC50 (IL17 AA HEK-5 pIC50, HEK-Blue IL-17 reporter cells)
CCC(=O)N[C@@H](C(=O)N1CCN(C)C(COC)C1)[C@@H](C)c1ccc(NC(=O)[C@@H](NC(=O)c2ccnn2CC)C(C2CC2)C2CC2)c(F)c1 (single isomer, unassigned) [Compound 202]	10 to 100 nM	–
CCOC(=O)N(C)[C@@H](C)C(=O)N[C@@H](C(=O)N1CCN(C)[C@H](C)C1)[C@@H](C)c1ccc(NC(=O)[C@@H](NC(=O)c2ccnn2CC)C(C2CC2)C2CC2)c(F)c1 [Compound 210]	< 10 nM	–
CCOC(=O)N(C)[C@@H](C)C(=O)N[C@@H](C(=O)N1CCN(C)CC1)[C@@H](C)c1ccc(NC(=O)[C@@H](NC(=O)c2ccnn2CC)C(C2CC2)C2CC2)c(F)c1 [Compound 211]	< 10 nM	–
CCn1nccc1C(=O)N[C@H](C(=O)Nc1ccc([C@H](C)[C@@H](NC(=O)CC2CC2)C(=O)N2CCN(C)[C@H](C)C2)cc1F)C(C1CC1)C1CC1 [Compound 226]	< 10 nM	–
CCn1nccc1C(=O)N[C@H](C(=O)Nc1ccc([C@H](C)[C@@H](NC(=O)CF)C(=O)N2CCN(C)[C@H](C)C2)cc1F)C(C1CC1)C1CC1 [Compound 228]	–	10 to 100 nM
CCC(=O)N[C@@H](C(=O)N1CCN(C)[C@H](C)C1)[C@@H](C)c1ccc(NC(=O)[C@@H](NC(=O)c2ccnn2C2CC2)C(C2CC2)C2CC2)c(F)c1 [Compound 229]	< 10 nM	–
CCC(=O)N[C@@H](C(=O)N1C[C@@H]2C[C@H]1CN2C)[C@@H](C)c1ccc(NC(=O)[C@@H](NC(=O)c2ccnn2CC)C(C2CC2)C2CC2)c(F)c1 [Compound 235]	10 to 100 nM	–
CCC(=O)N[C@@H](C(=O)N1C[C@H]2C[C@@H]1CN2C)[C@@H](C)c1ccc(NC(=O)[C@@H](NC(=O)c2ccnn2CC)C(C2CC2)C2CC2)c(F)c1 [Compound 236]	10 to 100 nM	–
CCC(=O)N[C@@H](C(=O)N1C[C@H]2CN(C)C[C@H]2C1)[C@@H](C)c1ccc(NC(=O)[C@@H](NC(=O)c2ccnn2CC)C(C2CC2)C2CC2)c(F)c1 [Compound 237]	100 to 10000 nM	–
CCC(=O)N[C@@H](C(=O)N1C[C@H]2CC[C@@H](C1)N2C)[C@@H](C)c1ccc(NC(=O)[C@@H](NC(=O)c2ccnn2CC)C(C2CC2)C2CC2)c(F)c1 [Compound 239]	< 10 nM	–
CCC(=O)N[C@@H](C(=O)N1CC[C@H](N(C)C)C1)[C@@H](C)c1ccc(NC(=O)[C@@H](NC(=O)c2ccnn2CC)C(C2CC2)C2CC2)c(F)c1 [Compound 240]	10 to 100 nM	–
CCC(=O)N[C@@H](C(=O)N1C[C@H]2C[C@@H](C1)N2C)[C@@H](C)c1ccc(NC(=O)[C@@H](NC(=O)c2ccnn2CC)C(C2CC2)C2CC2)c(F)c1 [Compound 241]	10 to 100 nM	–
CCC(=O)N[C@@H](C(=O)N1CC[C@@H](N(C)C)C1)[C@@H](C)c1ccc(NC(=O)[C@@H](NC(=O)c2ccnn2CC)C(C2CC2)C2CC2)c(F)c1 [Compound 242]	10 to 100 nM	–
CCC(=O)N[C@@H](C(=O)N1CCN(C)[C@H](C)C1)[C@@H](C)c1ccc(NC(=O)[C@@H](NC(=O)c2ccnn2CCO)C(C2CC2)C2CC2)c(F)c1 [Compound 244]	100 to 10000 nM	–
CCC(=O)N[C@@H](C(=O)N1CCN(C)[C@H](C)C1)[C@@H](C)c1ccc(NC(=O)[C@@H](NC(=O)c2ccnn2CC(F)(F)F)C(C2CC2)C2CC2)c(F)c1 [Compound 248]	10 to 100 nM	–
CCC(=O)N[C@@H](C(=O)N1CCC(C)(O)CC1)[C@@H](C)c1ccc(NC(=O)[C@@H](NC(=O)c2ccnn2CCF)C(C2CC2)C2CC2)c(F)c1 [Compound 250]	< 10 nM	–
CCC(=O)N[C@@H](C(=O)N1CCOCC1)[C@@H](C)c1ccc(NC(=O)[C@@H](NC(=O)c2ccnn2CCF)C(C2CC2)C2CC2)c(F)c1 [Compound 251]	10 to 100 nM	–
CCC(=O)N[C@@H](C(=O)N1CCC(C)(O)CC1)[C@@H](C)c1ccc(NC(=O)[C@@H](NC(=O)c2ccnn2CCN2CCOCC2)C(C2CC2)C2CC2)c(F)c1 [Compound 252]	10 to 100 nM	–
CCC(=O)N[C@@H](C(=O)N1CCOCC1)[C@@H](C)c1ccc(NC(=O)[C@@H](NC(=O)c2ccnn2CCN2CCOCC2)C(C2CC2)C2CC2)c(F)c1 [Compound 253]	100 to 10000 nM	–
CCn1nccc1C(=O)N[C@H](C(=O)Nc1ccc([C@H](C)[C@@H](NC(=O)[C@H](C)OC)C(=O)N2C[C@H]3CC[C@@H](C2)N3C)cc1F)C(C1CC1)C1CC1 [Compound 254]	< 10 nM	–
CCn1nccc1C(=O)N[C@H](C(=O)Nc1ccc([C@H](C)[C@@H](NC(=O)[C@H](C)OC)C(=O)N2CC[C@H](N(C)C)C2)cc1F)C(C1CC1)C1CC1 [Compound 255]	< 10 nM	–
CCn1nccc1C(=O)N[C@H](C(=O)Nc1ccc([C@H](C)[C@@H](NC(=O)[C@H](C)OC)C(=O)N2C[C@H]3C[C@@H]2CN3C)cc1F)C(C1CC1)C1CC1 [Compound 256]	10 to 100 nM	–
CCC(=O)N[C@@H](C(=O)N1CCN(C)[C@H](C)C1)[C@@H](C)c1ccc(NC(=O)[C@@H](NC(=O)c2ccnn2C(C)C)C(C2CC2)C2CC2)c(F)c1 [Compound 258]	< 10 nM	–
CO[C@@H](C)C(=O)N[C@@H](C(=O)N1CCN(C)CC1)[C@@H](C)c1ccc(NC(=O)[C@@H](NC(=O)c2ccnn2C(C)C)C(C2CC2)C2CC2)c(F)c1 [Compound 259]	< 10 nM	–
CO[C@@H](C)C(=O)N[C@@H](C(=O)N1CCN(C)[C@H](C)C1)[C@@H](C)c1ccc(NC(=O)[C@@H](NC(=O)c2ccnn2C(C)C)C(C2CC2)C2CC2)c(F)c1 [Compound 260]	< 10 nM	–
CO[C@@H](C)C(=O)N[C@@H](C(=O)N1C[C@H]2CC[C@@H](C1)N2C)[C@@H](C)c1ccc(NC(=O)[C@@H](NC(=O)c2ccnn2C(C)C)C(C2CC2)C2CC2)c(F)c1 [Compound 261]	< 10 nM	–
CO[C@@H](C)C(=O)N[C@@H](C(=O)N1CC[C@H](N(C)C)C1)[C@@H](C)c1ccc(NC(=O)[C@@H](NC(=O)c2ccnn2C(C)C)C(C2CC2)C2CC2)c(F)c1 [Compound 262]	< 10 nM	–

Continued, in another order:

IC50 [1]	Compound	IC50 (IL17 AA HEK-5 pIC50, HEK-Blue IL-17 reporter cells)
10 to 100 nM	CCC(=O)N[C@@H](C(=O)N1CCN(C)CC1)[C@@H](C)c1ccc(NC(=O)[C@@H](NC(=O)c2ccnn2C2CC2(F)F)C(C2CC2)C2CC2)c(F)c1 (single isomer, unassigned) [Compound 233]	–
< 10 nM	CCC(=O)N[C@@H](C(=O)N1CCN(C)CC1)[C@@H](C)c1ccc(NC(=O)[C@@H](NC(=O)c2ccnn2C2CC2(F)F)C(C2CC2)C2CC2)c(F)c1 (single isomer, unassigned) [Compound 234]	–
10 to 100 nM	CCC(=O)N[C@@H](C(=O)N1CCN(C)CC1)[C@@H](C)c1ccc(NC(=O)[C@H](NC(=O)c2ccnn2CC)C(C2CC2)C2CC2)c(F)c1 [Compound 201]	–
< 10 nM	CCC(=O)N[C@@H](C(=O)N1CCN(C)CC1)[C@@H](C)c1ccc(NC(=O)[C@@H](NC(=O)c2nonc2CC)C(C2CC2)C2CC2)c(F)c1 [Compound 204]	–
< 10 nM	CCC(=O)N[C@@H](C(=O)N1C[C@@H](C)N(C)[C@@H](C)C1)[C@@H](C)c1ccc(NC(=O)[C@@H](NC(=O)c2nonc2CC)C(C2CC2)C2CC2)c(F)c1 [Compound 205]	–
< 10 nM	CCc1nonc1C(=O)N[C@H](C(=O)Nc1ccc([C@H](C)[C@@H](NC(=O)COC)C(=O)N2CCN(C)CC2)cc1F)C(C1CC1)C1CC1 [Compound 206]	–
< 10 nM	CCC(=O)N[C@@H](C(=O)N1CCN(C)C[C@@H]1C)[C@@H](C)c1ccc(NC(=O)[C@@H](NC(=O)c2ccnn2CC)C(C2CC2)C2CC2)c(F)c1 [Compound 208]	–
10 to 100 nM	CCn1nccc1C(=O)N[C@H](C(=O)Nc1ccc([C@H](C)[C@@H](NC(=O)CCF)C(=O)N2CCN(C)CC2)cc1F)C(C1CC1)C1CC1 [Compound 218]	–
< 10 nM	CCc1nonc1C(=O)N[C@H](C(=O)Nc1ccc([C@H](C)[C@@H](NC(=O)[C@H](C)OC)C(=O)N2CCN(C)CC2)cc1F)C(C1CC1)C1CC1 [Compound 220]	–
< 10 nM	CCc1nonc1C(=O)N[C@H](C(=O)Nc1ccc([C@H](C)[C@@H](NC(=O)N(C)C2CC2)C(=O)N2CCN(C)CC2)cc1F)C(C1CC1)C1CC1 [Compound 224]	–
< 10 nM	CCn1nccc1C(=O)N[C@H](C(=O)Nc1ccc([C@H](C)[C@@H](NC(=O)CC2CC2)C(=O)N2CCN(C)CC2)cc1F)C(C1CC1)C1CC1 [Compound 227]	–
10 to 100 nM	CCC(=O)N[C@@H](C(=O)N1CCN(C)CC1)[C@@H](C)c1ccc(NC(=O)[C@@H](NC(=O)c2ccnn2C2CC2)C(C2CC2)C2CC2)c(F)c1 [Compound 230]	–
10 to 100 nM	CCC(=O)N[C@@H](C(=O)N1CCN(C)CC1)[C@@H](C)c1ccc(NC(=O)[C@@H](NC(=O)c2ccnn2CC(F)F)C(C2CC2)C2CC2)c(F)c1 [Compound 231]	–
100 to 10000 nM	CCC(=O)N[C@@H](C(=O)N1CC2(CN(C)C2)C1)[C@@H](C)c1ccc(NC(=O)[C@@H](NC(=O)c2ccnn2CC)C(C2CC2)C2CC2)c(F)c1 [Compound 238]	–
100 to 10000 nM	CCC(=O)N[C@@H](C(=O)N1CCN(C)CC1)[C@@H](C)c1ccc(NC(=O)[C@@H](NC(=O)c2ccnn2CCO)C(C2CC2)C2CC2)c(F)c1 [Compound 243]	–
10 to 100 nM	CCC(=O)N[C@@H](C(=O)N1CCN(C)CC1)[C@@H](C)c1ccc(NC(=O)[C@@H](NC(=O)c2ccnn2C)C(C2CC2)C2CC2)c(F)c1 [Compound 247]	–
10 to 100 nM	CCC(=O)N[C@@H](C(=O)N1CCN(C)CC1)[C@@H](C)c1ccc(NC(=O)[C@@H](NC(=O)c2ccnn2CC(F)(F)F)C(C2CC2)C2CC2)c(F)c1 [Compound 249]	–
